Source: patent US12370235B2, “Synthetic, non-natural antimicrobial peptides inspired by Staphylococcus auricularis delta toxin” (University of Saskatchewan, priority 2021, dated 2025)
Ends that are not written are not given here.

Experiments:
[1] = tested on: Candida duobushaemulonii AR 394; test: MIC, YPD broth, CDC and FDA AR Candida isolate panel; format: cell-based; conditions: Table 9 below the line: only 200 or 100 μg/mL tested; values reported as 100 are ≤100 μg/mL
Procedure: (§1) MIC determination. MICs were measured using peptides with 95% purity. For bacterial studies, cation-adjusted Mueller Hinton (MH) broth was used as the growth medium whereas Yeast Peptone Dextrose (YPD; 10 g/L yeast extract, 20 g/L peptone, 20 g/L dextrose) was used for Candida spp. and other yeast. Microorganisms were diluted to an optical density of […] in MH or YPD broth and a 180 μl volume was mixed with 20 μl of peptide arrayed as a 2-fold dilution series in a flat-bottom 96-well microtitre plate. A control was performed using 20 μl of sterile water. Plates were incubated as standing cultures overnight at 37° C.

[2] = tested on: Candida duobushaemulonii AR 392; test: as above; format: cell-based; conditions: Table 9 below the line: only 200 or 100 μg/mL tested; values reported as 100 are ≤100 μg/mL
Procedure: as §1

[3] = tested on: Saccharomyces cerevisiae AR 399; test: as above; format: cell-based; conditions: Table 9 below the line: only 200 or 100 μg/mL tested; values reported as 100 are ≤100 μg/mL
Procedure: as §1

[4] = tested on: Kodamae ohmeri AR 396; test: as above; format: cell-based; conditions: Table 9 below the line: only 200 or 100 μg/mL tested; values reported as 100 are ≤100 μg/mL
Procedure: as §1

[5] = tested on: Candida haemulonii AR 395; test: as above; format: cell-based; conditions: Table 9 below the line: only 200 or 100 μg/mL tested; values reported as 100 are ≤100 μg/mL
Procedure: as §1

[6] = tested on: Candida haemulonii AR 393; test: as above; format: cell-based; conditions: Table 9 below the line: only 200 or 100 μg/mL tested; values reported as 100 are ≤100 μg/mL
Procedure: as §1

[7] = tested on: Candida krusei AR 397; test: as above; format: cell-based; conditions: Table 9 below the line: only 200 or 100 μg/mL tested; values reported as 100 are ≤100 μg/mL
Procedure: as §1

[8] = tested on: Candida duobushaemulonii AR 391; test: as above; format: cell-based; conditions: Table 9 below the line: only 200 or 100 μg/mL tested; values reported as 100 are ≤100 μg/mL
Procedure: as §1

[9] = tested on: Saccharomyces cerevisiae AR 400; test: as above; format: cell-based; conditions: Table 9 below the line: only 200 or 100 μg/mL tested; values reported as 100 are ≤100 μg/mL
Procedure: as §1

[10] = tested on: Candida lusitaniae AR 398; test: as above; format: cell-based; conditions: Table 9 below the line: only 200 or 100 μg/mL tested; values reported as 100 are ≤100 μg/mL
Procedure: as §1

[11] = tested on: Mannheimia haemolytica ATCC 33393; test: MIC, broth dilution; format: cell-based; conditions: Table 11; highest concentration 25 μg/mL
Procedure, shortened: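 Peptides (95% purity) in 2-fold dilution series were mixed with M. haemolytica diluted to OD 6×10^−4 in cation-adjusted Mueller Hinton broth and incubated standing overnight at 37 °C. MIC was the lowest concentration with no visible growth.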

[12] = tested on: C. albicans MYA-2876; test: MIC, YPD broth; format: cell-based, Candida albicans; conditions: Table 8
Procedure, shortened: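 Minimum inhibitory concentrations against Candida albicans were determined in YPD broth (10 g/L yeast extract, 20 g/L peptone, 20 g/L dextrose) using peptides of 95% purity. A 180 μl volume of diluted yeast was combined with 20 μl of peptide in a 2-fold dilution series in 96-well plates, with sterile water as control, then incubated standing overnight at 37° C.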

[13] = tested on: S. aureus ATCC BAA-2313 (MRSA SCCmec type XI); test: MIC, broth dilution; format: cell-based, Staphylococcus aureus; conditions: Table 5; STIP3 variants, highest concentration 100 μg/mL
Procedure, shortened: (§2)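 Peptides of 95% purity tested as 2-fold dilution series against bacteria diluted to OD 6×10^−4 in cation-adjusted Mueller Hinton broth. Standing cultures incubated overnight at 37° C; MIC is the lowest concentration with no visible growth.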

[14] = tested on: S. aureus ATCC BAA-44 (MRSA SCCmec type I); test: MIC, broth dilution; format: cell-based, Staphylococcus aureus; conditions: Table 5; STIP3 variants, highest concentration 100 μg/mL
Procedure, shortened: as §2

[15] = tested on: S. aureus ATCC BAA-42 (MRSA SCCmec type VI); test: MIC, broth dilution; format: cell-based, Staphylococcus aureus; conditions: Table 5; STIP3 variants, highest concentration 100 μg/mL
Procedure, shortened: as §2

[16] = tested on: S. aureus ATCC BAA-2094 (MRSA SCCmec type V); test: MIC, broth dilution; format: cell-based, Staphylococcus aureus; conditions: Table 5; STIP3 variants, highest concentration 100 μg/mL
Procedure, shortened: as §2

[17] = tested on: S. aureus ATCC BAA-41 (MRSA SCCmec type II); test: MIC, broth dilution; format: cell-based, Staphylococcus aureus; conditions: Table 5; STIP3 variants, highest concentration 100 μg/mL
Procedure, shortened: as §2

[18] = tested on: S. aureus ATCC BAA-1683 (MRSA SCCmec type IV); test: MIC, broth dilution; format: cell-based, Staphylococcus aureus; conditions: Table 5; STIP3 variants, highest concentration 100 μg/mL
Procedure, shortened: as §2

[19] = tested on: S. aureus ATCC 29213; test: MIC, broth dilution; format: cell-based, Staphylococcus aureus; conditions: Table 5; STIP3 variants, highest concentration 100 μg/mL
Procedure, shortened: as §2

[20] = tested on: S. aureus ATCC 33592 (MRSA SCCmec type III); test: MIC, broth dilution; format: cell-based, Staphylococcus aureus; conditions: Table 5; STIP3 variants, highest concentration 100 μg/mL
Procedure, shortened: as §2

TVGGLVKWILDTVKKFK [STIP3-7, TVGGLVKWILDTVKKFK]
MIC (μg/mL) Candida duobushaemulonii AR 394 [1]: > (values below the line were determined using two concentrations of peptide 200 or 100 μg/mL) | MIC (μg/mL) Candida duobushaemulonii AR 392 [2]: > (values below the line were determined using two concentrations of peptide 200 or 100 μg/mL) | MIC (μg/mL) Saccharomyces cerevisiae AR 399 [3]: ≤ 100 µg/mL | MIC (μg/mL) Kodamae ohmeri AR 396 [4]: > (values below the line were determined using two concentrations of peptide 200 or 100 μg/mL) | MIC (μg/mL) Candida haemulonii AR 395 [5]: > (values below the line were determined using two concentrations of peptide 200 or 100 μg/mL) | MIC (μg/mL) Candida haemulonii AR 393 [6]: > (values below the line were determined using two concentrations of peptide 200 or 100 μg/mL) | MIC (μg/mL) Candida krusei AR 397 [7]: ≤ 100 µg/mL | MIC (μg/mL) Candida duobushaemulonii AR 391 [8]: > (values below the line were determined using two concentrations of peptide 200 or 100 μg/mL) | MIC (μg/mL) Saccharomyces cerevisiae AR 400 [9]: ≤ 100 µg/mL | MIC (μg/mL) Candida lusitaniae AR 398 [10]: ≤ 100 µg/mL | MIC (μg/mL) M. haemolytica [11]: 25 µg/mL | MIC C. albicans MYA-2876 [12]: 50 µg/mL | MIC S. aureus ATCC BAA 2313 (XI) [13]: > (no inhibition was observed at the highest concentration of peptide tested: 100 μg/mL for the STIP3 variants) | MIC S. aureus ATCC BAA 44 (I) [14]: > (no inhibition was observed at the highest concentration of peptide tested: 100 μg/mL for the STIP3 variants) | MIC S. aureus ATCC BAA 42 (VI) [15]: > (no inhibition was observed at the highest concentration of peptide tested: 100 μg/mL for the STIP3 variants) | MIC S. aureus ATCC BAA 2094 (V) [16]: > (no inhibition was observed at the highest concentration of peptide tested: 100 μg/mL for the STIP3 variants) | MIC S. aureus ATCC BAA 41 (II) [17]: > (no inhibition was observed at the highest concentration of peptide tested: 100 μg/mL for the STIP3 variants) | MIC S. aureus ATCC BAA 1683 (IV) [18]: > (no inhibition was observed at the highest concentration of peptide tested: 100 μg/mL for the STIP3 variants) | MIC S. aureus ATCC 29213 [19]: > (no inhibition was observed at the highest concentration of peptide tested: 100 μg/mL for the STIP3 variants) | MIC S. aureus ATCC 33592 (III) [20]: > (no inhibition was observed at the highest concentration of peptide tested: 100 μg/mL for the STIP3 variants)

TVGGLVKWILDTVKKFW [STIP3-6, TVGGLVKWILDTVKKFW]
MIC (μg/mL) Candida duobushaemulonii AR 394 [1]: > (values below the line were determined using two concentrations of peptide 200 or 100 μg/mL) | MIC (μg/mL) Candida duobushaemulonii AR 392 [2]: > (values below the line were determined using two concentrations of peptide 200 or 100 μg/mL) | MIC (μg/mL) Saccharomyces cerevisiae AR 399 [3]: ≤ 100 µg/mL | MIC (μg/mL) Kodamae ohmeri AR 396 [4]: > (values below the line were determined using two concentrations of peptide 200 or 100 μg/mL) | MIC (μg/mL) Candida haemulonii AR 395 [5]: > (values below the line were determined using two concentrations of peptide 200 or 100 μg/mL) | MIC (μg/mL) Candida haemulonii AR 393 [6]: > (values below the line were determined using two concentrations of peptide 200 or 100 μg/mL) | MIC (μg/mL) Candida krusei AR 397 [7]: ≤ 100 µg/mL | MIC (μg/mL) Candida duobushaemulonii AR 391 [8]: > (values below the line were determined using two concentrations of peptide 200 or 100 μg/mL) | MIC (μg/mL) Saccharomyces cerevisiae AR 400 [9]: ≤ 100 µg/mL | MIC (μg/mL) Candida lusitaniae AR 398 [10]: ≤ 100 µg/mL | MIC (μg/mL) M. haemolytica [11]: 25 µg/mL | MIC C. albicans MYA-2876 [12]: 50 µg/mL | MIC S. aureus ATCC BAA 2313 (XI) [13]: 12.5 µg/mL | MIC S. aureus ATCC BAA 44 (I) [14]: 25 µg/mL | MIC S. aureus ATCC BAA 42 (VI) [15]: 12.5 µg/mL | MIC S. aureus ATCC BAA 2094 (V) [16]: 12.5 µg/mL | MIC S. aureus ATCC BAA 41 (II) [17]: 12.5 µg/mL | MIC S. aureus ATCC BAA 1683 (IV) [18]: 12.5 µg/mL | MIC S. aureus ATCC 29213 [19]: 12.5 µg/mL | MIC S. aureus ATCC 33592 (III) [20]: 12.5 µg/mL

TVGGLVKWILDVVKKFA [STIP3-9, TVGGLVKWILDVVKKFA]
MIC (μg/mL) Candida duobushaemulonii AR 394 [1]: > (values below the line were determined using two concentrations of peptide 200 or 100 μg/mL) | MIC (μg/mL) Candida duobushaemulonii AR 392 [2]: > (values below the line were determined using two concentrations of peptide 200 or 100 μg/mL) | MIC (μg/mL) Saccharomyces cerevisiae AR 399 [3]: ≤ 100 µg/mL | MIC (μg/mL) Kodamae ohmeri AR 396 [4]: > (values below the line were determined using two concentrations of peptide 200 or 100 μg/mL) | MIC (μg/mL) Candida haemulonii AR 395 [5]: > (values below the line were determined using two concentrations of peptide 200 or 100 μg/mL) | MIC (μg/mL) Candida haemulonii AR 393 [6]: > (values below the line were determined using two concentrations of peptide 200 or 100 μg/mL) | MIC (μg/mL) Candida krusei AR 397 [7]: ≤ 100 µg/mL | MIC (μg/mL) Candida duobushaemulonii AR 391 [8]: > (values below the line were determined using two concentrations of peptide 200 or 100 μg/mL) | MIC (μg/mL) Saccharomyces cerevisiae AR 400 [9]: ≤ 100 µg/mL | MIC (μg/mL) Candida lusitaniae AR 398 [10]: ≤ 100 µg/mL | MIC (μg/mL) M. haemolytica [11]: 25 µg/mL | MIC C. albicans MYA-2876 [12]: 50 µg/mL | MIC S. aureus ATCC BAA 2313 (XI) [13]: 25 µg/mL | MIC S. aureus ATCC BAA 44 (I) [14]: 25 µg/mL | MIC S. aureus ATCC BAA 42 (VI) [15]: 25 µg/mL | MIC S. aureus ATCC BAA 2094 (V) [16]: 25 µg/mL | MIC S. aureus ATCC BAA 41 (II) [17]: 35 µg/mL | MIC S. aureus ATCC BAA 1683 (IV) [18]: 25 µg/mL | MIC S. aureus ATCC 29213 [19]: 25 µg/mL | MIC S. aureus ATCC 33592 (III) [20]: 25 µg/mL
